This note sets out measurements from a melting point compilation (Tetko et al.; mined from patent text by program, amines drawn as free bases though some values may be those of a salt).

Where only a bound is given, the exact number is not on record here.

As usually defined, the melting point is the temperature of the solid-liquid transition. In turn, `O=C1N(Cc2ccc(N3CCOCC3)nc2)c2ccccc2C12COc1cc3c(cc12)OCCO3` (stereo not given) gave a melting point of 117 to 119 °C.
For `O=C1c2cc(O)ccc2OCC1n1ccnc1` (stereo not given) the value was 245 to 247 °C; for `CCNC(c1ccccc1)(c1ccccc1)c1ccccc1`, 75 to 77 °C; for `COc1ccc(CC(=O)c2ccc(OC)cc2OC)cc1`, 78.5 to 79.5 °C.
For `CN1C(=O)CC[C@]2(C)c3ccc(-c4c5ccccc5cc5ccccc45)cc3CC[C@@H]12` the value was 95 to 110 °C; for `COc1ccccc1N1Sc2ccccc2C(c2ccccc2)C1=O` (stereo not given), 133 °C.
For `C[C@H]1[C@H](c2ccccc2)N(C)C(=O)N1C(=O)NC1CCCCC1` (relative stereo) the value was 108 °C; for `CCCSCCNC(=O)n1cc(F)c(=O)[nH]c1=O`, 112 to 114 °C.
`C[C@@H](CN1CCc2ccc3c(c21)CCO3)NC(=O)OC(C)(C)C` had a melting point of 141 to 142 °C.
For `Cc1c(C(=O)Nc2ccc(N3CCC(N4CCCCC4)CC3)c(C#N)c2)cnn1-c1ccc(Cl)cc1` the value was 252 °C.
`CN(C(=O)Cc1ccc([N+](=O)[O-])cc1)C1c2ccccc2CCC1N1CCCC1` (stereo not given): the melting point was 135 °C.
Consider `Nc1ccc(C(=O)OC2CCN(Cc3ccccc3)CC2)cn1`, for which the melting point is 135 to 136 °C.
For `CCOP(=O)(/C=C/c1cn(-c2ccccc2)nc1OCc1ccc(OCc2nc(N3CCOCC3)sc2C)c(OC)c1)OCC` the value was 88 to 90 °C.
For the compound `CCOC(=O)COc1ccc(C2=NNC(=O)NC2C)cc1` (stereo not given), the melting point fell in the range of 152 to 153 °C.
For `CC(C)(O)c1cccc(-c2ccc3nc(-c4ccc(Cl)cc4)cn3c2)c1` the value was 166 to 168 °C.
The result for `CC1(C)NC(=O)N(CC#CI)C1=O` reads 118 to 126 °C.
For `O=c1[nH]c2ncc(-c3ccc(-c4n[nH]c(CN5CCOCC5)n4)cc3)nc2n1CC1CCOCC1` the value was 281 to 283 °C.
In turn, `CS(=O)(=O)c1ccc(N2CC(CO)OC2=O)cc1` (stereo not given) showed a melting point of 177 to 180 °C.
For `CON=Cc1nc(Nc2ccccc2)nc(C)c1C` the value was 85 to 88 °C; for `CCCCCN1C(=O)C(CCC(=O)OCC)(NC(=O)c2ccc3ccccc3c2)c2ccc(OC)cc21` (stereo not given), 156 to 159 °C; for `Nc1ccccc1NC(=O)c1cc2cc(OCCO)ccc2s1`, 215 to 216 °C.
For `COc1ccc([C@@H]2O[C@H]2C(=O)Nc2ccccc2)cc1` the value was 162 to 163 °C.
The result for `CCCCn1ccc(N2CCC(c3ccc(C(C)(C)O)cc3F)CC2)c(Cl)c1=O` reads 150 °C; that for `CS(=O)(=O)Nc1cc(C(c2cc(F)ccc2F)S(=O)(=O)c2ccc(Cl)cc2)c(Cl)cn1` (stereo not given), 220 to 222 °C.
`Cc1ccc(-c2ccc(S(=O)(=O)N3c4ccccc4CC3C(=O)NCCOc3ccc(CC(=O)O)cc3)cc2C(F)(F)F)cc1` (stereo not given) came in with a melting point of 92 °C.
For `CC(C)C(=O)Nc1ccc2oc3c(c2c1)CCCC3`, the melting point is 206 to 208 °C.
For `O=C(O)c1nc2c(=O)[nH]c3cc(C(F)(F)F)ccc3n2c1CNc1ccc2c(c1)OCO2` the value was more than 250 °C; for `CCCCCCCC(SC)S(=O)(=O)c1ccc(C)cc1` (stereo not given), 65 to 66 °C; for `CCOC(=O)c1cnc2cc(OC)c(OC)cc2c1`, more than 300 °C.
For `CC(C)(C)c1ccc(OCC(O)CN2CCC3(CC2)CSC2=C(O3)c3cc(Br)ccc3C(=O)C2=O)cc1` (stereo not given) the value was 150 to 152 °C.
For `O=[N+]([O-])c1cc(Br)cc(O)c1O` the value was 102 to 105 °C; for `COc1ccc(-c2[nH]nc3c2C(=O)c2c(NC(=O)NNC(=O)c4ccncc4)cccc2-3)cc1`, 248 °C; for `CC(C)(C)c1cc(-c2nnc(N)o2)cc(C(C)(C)C)c1O`, 244 to 245 °C.
Compound `CC(C)OCCN1C(=O)N2CCOC2(c2ccccc2)c2cc([N+](=O)[O-])ccc21` (stereo not given) yielded a melting point of 123 to 124 °C.
`COc1cc2[nH]c(C)c(CCN3CCN(NC(=O)Nc4ccccc4)CC3)c2cc1OC` registered a melting point of 170 to 173 °C.
The result for `CC1CC2=CC(=O)CCC2C2C(O)CC3(C)C(=O)CCC3C12` (stereo not given) reads 200 °C; that for `Cn1cc(-c2cc(-c3ccc4[nH]ncc4c3)ccn2)n(-c2ccc(C(C)(C)C#N)cc2)c1=O`, 165 °C; that for `COc1ccc(C2(C#N)CCC(C(N)=O)CC2)cc1OC1CCCC1` (stereo not given), 100 to 102 °C.
For `CCNc1nc2ccc(CCc3ccc(CN(C)C)o3)cc2o1` the value was 72 to 73 °C; for `COC(=O)C(Oc1cc(OCc2ccsc2)ccc1C#N)c1ccccc1C(F)(F)F` (racemic), 104 to 108 °C.
For `COc1ccc(C(=O)Cc2c(Cl)cncc2Cl)c2c(CC(=O)NCc3ccccc3)coc12` the value was 244 to 246 °C.
For `CC(C)(C(=O)O)c1ccc(C(=O)Nc2cn3cc(-c4ccsc4)ccc3n2)cc1`, the melting point lay in the range of 304 to 306 °C.
`N#Cc1cc(F)c(N2C(=O)c3ccccc3C2=O)cc1O`: the melting point is 247 °C.
For `Clc1cccc(Cl)c1CSCc1c(Cl)cccc1Cl` the value was 128 to 130 °C; for `COc1cccc(CC(=O)O)c1OCCCc1cn(-c2cccc(C(F)(F)F)n2)nc1C(C)C`, 95 to 97 °C; for `CN(C)C(=S)SCC(c1cccc2ccccc12)[N+](=O)[O-]` (stereo not given), 136 to 138 °C.
The result for `COc1ccc(Cn2cnc3c(-c4ccco4)nc(I)nc32)cc1` reads 145 to 148 °C.
Consider `COc1ccc(Cn2c(=O)nc(C3CC3)c3cc(-c4cccc(Cl)c4)ccc32)cc1`, for which the melting point was in the range of 173 to 174 °C.
`CNc1ccc(Cl)cc1-c1nnc(C(F)(F)F)n1CC(=O)N1CCOCC1`: the melting point lay within 152 to 153 °C.
For `CS(=O)(=O)c1ccc(-c2[nH]c3ccc(Cl)cc3c2-c2ccc(S(C)(=O)=O)cc2)cc1` the value was 173 to 175 °C; for `COCCNC(=O)c1cc2c(nc(C)n2C)c2c1CCC1(Cc3ccccc3C1)N2`, 186 to 187 °C.
The result for `C=C(C)Sc1oc2cc(OC)ccc2c(=O)c1-c1ccccc1` reads 117 to 118 °C.
For `CC(C)n1nc(-c2cnc(N)nc2-c2ccccc2Br)ccc1=O` the value was 203 to 205 °C.
Compound `O=c1oc2cccnc2n1CN1CCN(c2cccc(C(F)(F)F)c2)CC1` came in with a melting point of 112 to 118 °C.
The result for `COc1cc2nc(N)nc(-c3ccc(O)cc3Cl)c2cc1OC` reads 245 to 247 °C; that for `Cc1c(F)cc(C(=O)O)c(Cl)c1[N+](=O)[O-]`, 186 to 188 °C; that for `CC#Cc1cc(=O)n2nc(SCCCCCC)sc2n1`, 94 to 97 °C.
For `COc1cc(-c2nc(C(C)C)no2)cc2oc(=O)c(C)c(C)c12` the value was 142 °C.
The result for `N=C(N)c1ccc(C(=O)NCCCCC(=O)NC(CC(=O)O)C(=O)NC(Cc2ccccc2)C(=O)O)cc1` (stereo not given) reads 169 to 171 °C; that for `CCOC(=O)c1csc(/C=C/C(=O)c2ccc3c(c2)C2(C)C4(C)CCC(C4)C2(C)O3)c1` (stereo not given), 149 to 151 °C.
In turn, `CCOC(=O)c1cc2ccc(Cl)cc2n1C` returned a melting point of 75.5 to 76.5 °C.
The result for `CCCCn1c(=O)n(C)c(=O)c2nn(S(=O)(=O)CCCCl)cc21` reads 105 to 106 °C; that for `O=C(O)c1ccc(OCCCON=Cc2cc3ccccc3n2Cc2ccccc2)c(-c2ccc(C(F)(F)F)cc2)c1`, 196 to 197 °C.
The result for `CN1CCN(c2cc(Cl)cc3c2c(=O)n(Cc2ccc(O)cc2)c(=O)n3Cc2ccccc2)CC1` reads 138 to 140 °C; that for `COc1ccc(C2=NN(CCCCCN3C(=O)c4ccccc4C3=O)C(=O)[C@H]3CC=CC[C@@H]23)cc1OC` (relative stereo), 126 to 129 °C.
The result for `CCN(CC)CCCOc1ccc(C(O)(CC)c2cccc(C(F)(F)F)c2)cc1` (stereo not given) reads 44 to 46 °C.
As to `CSC(C#N)NC(=O)c1cccc(Cl)c1` (stereo not given), the melting point fell in the range of 115 to 117 °C.
The result for `CC[Si](C#Cc1c2ccccc2c2ccc3c(C#C[Si](CC)(CC)CC)c4ccccc4c4ccc1c2c34)(CC)CC` reads 300 to 307 °C.
`COc1ccc(CN(C)CCCc2ccc(NC(=O)c3cccc4c(=O)cc(-c5ccccc5)[nH]c34)cc2)cc1OC` registered a melting point of 180 °C.
The result for `CC(C)(C)C(O)(COc1ccc(F)cc1)C(C)(F)n1cncn1` (stereo not given) reads 90 to 93 °C.
`Nc1ccnn1-c1c(F)cc(C(F)(F)F)cc1Cl` showed a melting point of 87 to 90 °C.
For `CN1CCC2=C(C=CCC2)C(N)C1=O` (stereo not given) the value was 69 to 81 °C.
`CC(=O)Nc1cc(C)c(C)cc1OC(C)=O` gave a melting point of 156 to 158 °C.
On to `CCC(Oc1c(C)cc(C)cc1C)C(=O)OC1CC(O)C=C2C=CC(C)C(CCC3CC(O)CC(=O)O3)C21` (mixture of isomers), for which the melting point is 134 to 136 °C.
Take `Cc1oc(-c2ccco2)nc1/C=C/c1ccc(C=O)cc1`: the melting point was in the range of 209 to 210 °C.
For `O=C(O)c1cc(F)c(F)c(C(F)(F)F)c1F` the value was 87 to 90 °C; for `Cc1ccccc1N=c1scc(-c2ccc(Cl)c(S(=O)(=O)N(C)C)c2)n1C`, 158 to 162 °C; for `COCCc1sc2ncnc(N)c2c1-c1ccc(NC(=O)Nc2cc(C(F)(F)F)ccc2F)cc1`, 209 to 211 °C.
The result for `Cc1nc(-n2ccc(O)cc2=O)sc1C(=O)NCc1ccncc1` reads 275 to 278 °C.
`COC(=O)c1cc(OC)nc(C)n1`: the melting point lay within 90 to 93 °C.
For `COc1ccc(Br)c(C=C(C#N)C(=O)O)c1OC` the value was 130 to 132 °C; for `COc1ccc(C(=O)c2ccc(Cl)nc2)c(OCc2ccccc2)c1`, 93 to 94 °C.
The result for `O=C1CNC=Nc2[nH]cnc21` reads 260 °C.
For `CC(C)c1nc(CN2C(=O)C3(COc4cc5c(cc43)OCO5)c3cccc(C#N)c32)cs1` (stereo not given) the value was 162 to 163 °C; for `CCOC(=O)c1cccn2c(S(=O)(=O)Cl)c(C)nc12`, 182 to 183 °C.
